Data taken from ChEMBL document CHEMBL1130721, “Design and synthesis of novel conformationally restricted HIV protease inhibitors” (Bioorg Med Chem Lett, 1998).

Each compound was assayed against Human immunodeficiency virus type 1 protease (Human immunodeficiency virus 1, UniProt Q72874) (assay: Compound was assayed for inhibition against HIV protease activity).
`COc1ccc(S(=O)(=O)N(CC2CCCC2)C[C@@H](O)CN2C(=O)C3(CCCCC3)NC[C@@H]2Cc2ccccc2)cc1` was tested, and the Ki was 0.017 µM. With `COc1ccc(S(=O)(=O)N(CC2CCCC2)C[C@@H](O)CN2C(=O)CNC[C@@H]2Cc2ccccc2)cc1` the Ki was 3 µM. With `COc1ccc(S(=O)(=O)N(CC2CCCC2)C[C@@H](O)CN2C(=O)OC[C@@H]2Cc2ccccc2)cc1` the Ki was 1.5 µM. `COc1ccc(S(=O)(=O)N(CC2CCCC2)C[C@@H](O)CN2C(=O)COC[C@@H]2Cc2ccccc2)cc1` was tested, and the Ki was 1 µM. Work on `COc1ccc(S(=O)(=O)N(CC2CCCC2)C[C@@H](O)CN2C(=O)N(Cc3ccccc3)C[C@@H]2Cc2ccccc2)cc1` yielded a Ki of 0.015 µM. `COc1ccc(S(=O)(=O)N(CC2CCCC2)C[C@@H](O)CN2C(=O)[C@@H](Cc3ccccc3)C[C@@H]2Cc2ccccc2)cc1` gave a Ki of 0.0005 µM.
